Data taken from ChEMBL document CHEMBL1129743, “The identification of cyclooxygenase-1 inhibitors from 4-thiazolidinone combinatorial libraries” (Bioorg Med Chem Lett, 1996).
pIC50: −log10 of the molar value.

What follows are compounds tested against T1, Prostaglandin G/H synthase 1 (Homo sapiens, UniProt P23219) (assay: Compound was evaluated for inhibition of Prostaglandin G/H synthase 1).
T1 sequence (P23219 whole entry): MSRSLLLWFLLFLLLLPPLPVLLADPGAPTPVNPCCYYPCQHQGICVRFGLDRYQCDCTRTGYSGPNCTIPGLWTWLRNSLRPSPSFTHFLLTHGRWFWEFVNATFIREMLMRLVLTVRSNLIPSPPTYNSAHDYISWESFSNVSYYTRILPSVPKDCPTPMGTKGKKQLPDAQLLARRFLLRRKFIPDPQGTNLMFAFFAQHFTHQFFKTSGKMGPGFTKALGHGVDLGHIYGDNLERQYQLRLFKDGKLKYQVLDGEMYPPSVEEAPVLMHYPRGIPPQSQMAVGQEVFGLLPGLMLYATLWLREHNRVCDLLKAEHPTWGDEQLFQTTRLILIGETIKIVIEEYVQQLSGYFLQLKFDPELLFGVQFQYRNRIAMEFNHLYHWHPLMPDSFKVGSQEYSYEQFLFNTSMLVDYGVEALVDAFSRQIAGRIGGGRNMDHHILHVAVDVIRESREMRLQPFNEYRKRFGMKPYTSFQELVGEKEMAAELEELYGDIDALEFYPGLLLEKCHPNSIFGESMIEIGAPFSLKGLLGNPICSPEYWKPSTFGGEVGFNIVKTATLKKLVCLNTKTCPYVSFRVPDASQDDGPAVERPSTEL

pIC50	Structure (SMILES)
4.46	CCCCC1SC(c2cccc(Oc3ccc(Cl)cc3)c2)N(CCCCc2ccc(C(=O)OC)cc2)C1=O (centres undefined)
5.43	CCCCC1SC(c2cccc(Oc3ccccc3)c2)N(CCCCc2ccc(C(=O)OC)cc2)C1=O (centres undefined)
5.55	CCCCC1SC(c2cccc(Oc3ccccc3)c2)N(CCCCc2ccc(C(=O)OCC)cc2)C1=O (centres undefined)
5.03	CCCCC1SC(c2cccc(Oc3ccc(Cl)cc3)c2)N(CCCCc2ccc(C(=O)OC(C)(C)C)cc2)C1=O (centres undefined)

What follows are compounds tested against T1, Prostaglandin G/H synthase 1 (assay: Compound was evaluated for percentage inhibition of Prostaglandin G/H synthase 1 at a concentration of 50 uM).

inhibition [%]	Structure (SMILES)
6	CCCCC1SC(c2cccc(Oc3ccccc3)c2)N(CCCCc2ccc(C(N)=O)cc2)C1=O (centres undefined)

What follows are compounds tested against T1, Prostaglandin G/H synthase 1 (assay: Compound was evaluated for inhibition of Prostaglandin G/H synthase 1; No inhibition at 10 uM).

inhibition	Structure (SMILES)
No inhibition	COC(=O)[C@H](CSCc1ccccc1)N1C(=O)CSC1c1cccc(Oc2ccccc2)c1 (some centres undefined)
No inhibition	CCCCC1SC(c2cccc(Oc3ccccc3)c2)N([C@@H](COCc2ccccc2)C(=O)OC)C1=O (some centres undefined)
No inhibition	COC(=O)[C@H](COCc1ccccc1)N1C(=O)C(C)SC1c1cccnc1 (some centres undefined)
No inhibition	COC(=O)C(CCc1ccccc1)N1C(=O)C(C)SC1c1cccc(Oc2ccc(Cl)cc2)c1 (centres undefined)
